Structures are written as SMILES.

The record followed here is a melting point compilation (Tetko et al.; mined from patent text by program, amines drawn as free bases though some values may be those of a salt).

Take `N#Cc1cc(F)c2ncc(C(=O)NCc3ccc(Cl)cc3)c(O)c2c1`: the melting point – broadly, the temperature, or range, at which the solid turns liquid – was greater than 300 °C.
`COc1ccc2nc(Cl)cc(C=CN(C)C)c2c1` showed a melting point of 162 to 164 °C.
With `NCCCN(CC1COc2ncccc2O1)c1ccc(Cl)nn1` (stereo unspecified), the melting point was found to be 101 °C.
Regarding `CCCn1c(CC)c2c3c(cccc31)C1CC(NC(=S)N(CC)CC)CN(C)C1C2` (stereo unspecified), the melting point was in the range of 173 to 175 °C.
`CC(C)CC(C(=O)O)C(=O)O` yielded a melting point of 102 to 105 °C.
Consider `C=CCN1CCC=C(c2csc(N)n2)C1`, for which the melting point was 129 to 132 °C.
As for `Cc1cc(Nc2ccccn2)c(S(C)(=O)=O)cc1C(=O)N=C(N)N`, the melting point was in the range of 225 to 226 °C.
Regarding `COC(=O)c1ccc(C=Cc2ccc([N+](=O)[O-])c(C#N)c2)cc1`, the melting point is 266 to 269 °C.
`CCc1n[nH]c(CC)c1CCCCCCOc1cc(Cl)c(OC)cc1Cl` showed a melting point of 148 to 150 °C.
On to `CCCCOCCCn1c(CCCC)nc2cnc3cccnc3c21`, for which the melting point fell in the range of 56.5 to 57.5 °C.
Molecule `COc1ccc(CN(C)CCN(C)Cc2ccc(NC(=O)c3cccc4c(=O)c5cccc(OC)c5[nH]c34)cc2)cc1OC` returned a melting point of 170 °C.
In turn, `CC(C)(C)C(=O)OCCn1nc(-c2cc(C(C)(C)C)c(O)c(C(C)(C)C)c2)c2cccnc21` returned a melting point of 85 to 87 °C.
For the molecule `COc1ccccc1Oc1c(NS(=O)(=O)c2ccc(C(C)(C)C)cc2)nc(-c2ncccn2)nc1OCCOc1ncc(-c2ccccn2)cn1`, the melting point was 149 to 157 °C.
`CC(=O)Nc1ccnc(-c2ccncc2)n1`: the melting point was in the range of 218 to 220 °C.
On to `COCOc1ccc2c(N)noc2c1`, for which the melting point lay in the range of 88 to 89 °C.
On to `CCOP(=O)(OCC)/C(O)=C/c1cn(-c2ccccc2)nc1OCc1ccc(OCc2nc(-c3ccco3)oc2C)c(OC)c1`, for which the melting point is 147 to 149 °C.
Take `CCC(=O)Nc1ccc(-n2cc(CCCOc3c(CC(=O)O)cccc3OC)c(C(C)C)n2)nc1`: the melting point lay in the range of 147 to 148 °C.
Molecule `Cc1cccc(OCCOc2cccc(C)c2)c1` yielded a melting point of 98 °C.
Regarding `CC1(C)CCC(C)(C)c2cc(S(=O)c3ccc(C(=O)O)cc3)ccc21` (stereo unspecified), the melting point lay within 214 to 216 °C.
Molecule `Cc1ccc(C2=NCCN2C(=O)Nc2ccccc2)cc1C` came in with a melting point of 139 to 142 °C.
With `COP(=O)(Cc1c(Cl)c(Cl)c(CP(=O)(OC)OC)c(Cl)c1Cl)OC`, the melting point is 179 to 181 °C.
In turn, `c1ccc(CN2CCC(NCc3ccc(OCc4ccnc5ccccc45)cc3)CC2)cc1` came in with a melting point of 72 to 75 °C.
With `CCc1ccc(C=CC(=O)NN2CC(=O)NC2=O)cc1Cl`, the melting point lay in the range of 231 to 234 °C.
As for `COc1ccc(NCCCOc2ccc3cc(OCCCNc4ccc(OC)cc4)ccc3c2)cc1`, the melting point came out at 129 °C.
With `CS(=O)(=O)c1ccc(-c2cnn(-c3cccc(Cl)c3)c(=O)c2COc2ccc(F)cc2)cc1`, the melting point lay in the range of 50 to 80 °C.
For `CC(=O)NC(CO)C(O)c1ccc(C=Cc2csc3ccccc23)s1` (stereo unspecified), the melting point was 144 to 145 °C.
Molecule `O=C(Nc1nccs1)c1nc(-c2ccc(N3CCC(N4CCOCC4)CC3)cc2)[nH]c1-c1ccc(Cl)cc1` yielded a melting point of 165 to 170 °C.
The value for `Cc1n[nH]c(C)c1[C@H](C)NC(=O)COc1cc(C(F)(F)F)c2c(-c3ccccc3)nn(C)c2n1` was 145 to 147 °C; that for `CS(=O)(=S)OCc1c(F)c(F)c(F)c(F)c1F` (stereo unspecified) was 64.2 to 64.7 °C.
In turn, `CCOC(=O)COc1ccc(C(=O)Nc2ccccc2Oc2cccc(-c3nnn[nH]3)c2)cc1` gave a melting point of 165 to 166 °C.
`C=Cc1c(C(C)C)nc(C(C)C)c(CO)c1-c1ccc(F)cc1` showed a melting point of 119 to 120 °C.
Regarding `CCCCCCCCNC(=O)n1nc(Oc2ncc(C(F)(F)F)cc2Cl)c(Cl)c1C`, the melting point fell in the range of 61 to 62 °C.
On to `O=CN(O)C(CCO)CS(=O)(=O)c1ccc(-c2ccc(C(F)(F)F)cc2)cc1` (stereo unspecified), for which the melting point was 186 to 189 °C.
Molecule `CC(=O)OC1=CCC2C3CC=C4CC(OC(C)=O)CCC4(C)C3CCC12C` (stereo unspecified) had a melting point of 144 to 150 °C.
Consider `COc1cc(C)c(NC(=O)OC(C)(C)C)c(C)c1C`, for which the melting point fell in the range of 104 to 106 °C.
Consider `CCCN1CCOc2cccc3nc4c(c1c23)CCCC4`, for which the melting point fell in the range of 74.5 to 75.5 °C.
`COC(=O)c1ccccc1C1=NC(C)(C(C)C)C(=O)N1Sc1ccccc1[N+](=O)[O-]` (stereo unspecified) came in with a melting point of 143 to 148 °C.
The molecule `O=C(NC1CCOC(O)C1)c1ccc2nonc2c1` (stereo unspecified) yielded a melting point of 91 to 92 °C.
In turn, `CCOC(=O)N[C@@H](C(=O)O)c1ccccc1` returned a melting point of 143 to 150 °C.
The molecule `CCOCc1nc2c(N)nc3cccnc3c2n1CCCC(C)N(OC)C(=O)NC(C)C` (stereo unspecified) showed a melting point of 174 to 175 °C.
The value for `Cc1c(-c2ccncc2)[nH]c(-c2ccncc2)c1C(=O)OCc1ccccc1` was 204 to 205 °C.
As to `COc1cccc([C@H]2O[C@H](CC(=O)Nc3cccc(CCC(=O)O)c3)C(=O)N(CC(C)(C)CO)c3ccc(Cl)cc32)c1OC`, the melting point fell in the range of 141 to 144 °C.
Turning to `CCc1ccc(OC(CC)C(=O)OC2CC(O)C=C3C=CC(C)C(CCC4CC(O)CC(=O)O4)C32)cc1` (mixture of isomers), the melting point lay in the range of 139 to 140 °C.
For the molecule `CC(c1oc2ccc(Br)cc2c(=O)c1-c1ccccc1)n1ncc2c(N)ncnc21` (stereo unspecified), the melting point was 239 to 240 °C.
As for `CC(C)(C)OC(=O)NCC1CCCc2ccc(C(=O)O)cc21` (stereo unspecified), the figure is 172 to 176 °C.
`Cn1c(OC2CCOC2)nn(C(=O)Oc2ccccc2)c1=O` (stereo unspecified) showed a melting point of 98 °C.
Consider `O=C1CC(c2ccc(O)cc2)Cc2ccccc21` (stereo unspecified), for which the melting point is 194 to 195 °C.
Molecule `COc1c(C)c(C)cc(C)c1C(O)(c1ccc(C)cc1)C(C)C` (stereo unspecified) gave a melting point of 103 to 104 °C.
In turn, `COc1ccc(S(=O)(=O)C2(C(=O)O)CCN(CCc3ccccc3)CC2)cc1` returned a melting point of 208 °C.
Turning to `COC(=O)Nc1ccc(NC(=O)CBr)c([N+](=O)[O-])c1`, the melting point lay in the range of 160 to 162 °C.
On to `CC(=O)OCc1c(Br)cccc1Br`, for which the melting point lay in the range of 62 to 65 °C.
As for `CCN1C(=O)OC(C)(C)c2cc(-c3cc(F)cc(C#N)c3)ccc21`, the figure is 154 to 155 °C; as for `CN(C)c1ccc(C2(c3ccc(N(C)C)cc3)NNC(=O)c3cc(N(C)C)ccc32)cc1`, 265 to 270 °C; as for `CCOc1ccc(C2=NN(C3CCN(C(=O)Nc4ccccc4)CC3)C(=O)[C@@H]3CC=CC[C@H]23)cc1OCC`, 109 to 112 °C.
`CC(C)(C)NC(=O)c1ccncc1` returned a melting point of 115 to 117 °C.
Turning to `CCCCc1c(C(=O)c2ccc(OCCCN(CCCC)CCCC)cc2)[nH]c2ccc([N+](=O)[O-])cc12`, the melting point turned out to be 80 °C.
The molecule `CC(=O)NCC1CC(c2ccc(N3CCOCC3)c(F)c2)=NO1` (single isomer, unassigned; (-)) came in with a melting point of 179 to 180 °C.
For `COc1cc(C(=O)c2ccc(OC)c(OC)c2OC)cc(OC)c1OC`, the melting point is 125 to 126 °C.
Consider `O=C(Nc1cccc(C(F)(F)F)c1)c1cccc2cc(Oc3cc(CO)ncn3)ccc12`, for which the melting point was 183 to 184 °C.
As to `CCOCCN(c1cccc2cc(C(N)=O)[nH]c12)S(=O)(=O)c1cccs1`, the melting point stood at 135 °C.
Regarding `CCOC(=O)c1ccc(-c2nc(CCl)c(C)o2)s1`, the melting point lay within 101 to 102 °C.
As to `CC1=CCCN(C)C1COC(=O)c1c[nH]c2ccccc12` (stereo unspecified), the melting point is 172 °C.
Molecule `CCCc1c(Cl)sc2[nH]c(=O)c(=O)[nH]c12` returned a melting point of 285 to 287 °C.
The molecule `CCC(C)N1CCC(CNc2ccc(Cl)cc2C(=O)Nc2ccc(C)cn2)CC1` (stereo unspecified) came in with a melting point of 126 to 128 °C.
Molecule `CCC(C=O)(CC)SN(C)C(=O)ON=C1SC(C)(C)C(=O)N1C` displayed a melting point of 105 to 106 °C.
Molecule `O=C(O)c1cc(OCc2ccccc2)cc(OCc2ccccc2)c1` had a melting point of 211 to 213 °C.
The value for `O=C(CCCCCc1ccccc1)NNC(=O)c1ccc(O)cc1` was 155 to 160 °C.
For the molecule `CC(C)[C@H](NC(=O)Cc1csc(N(C)C)n1)C(=O)N[C@@H](Cc1ccccc1)[C@@H](O)C[C@H](Cc1ccccc1)NC(=O)OCc1cncs1`, the melting point was 157 to 159 °C.
`COc1ccc(-c2cc(-c3c(-c4ccccn4)nc4ccccn34)ccn2)cc1` returned a melting point of 222 °C.
For `CCOC(=O)CC(O)CP(=O)(OCC)OCC` (stereo unspecified), the melting point was 33 to 35 °C.
`CCOC1CN(Cc2ccc(OC)cc2)Cc2cc(OC)c(O)cc21` (stereo unspecified) yielded a melting point of 154 to 157 °C.
As for `CCCC(=O)OCC(=O)C1C(C)CC2C3=C(C(O)CC21C)C1(C)C=CC(=O)C=C1C(F)C3` (stereo unspecified), the figure is 112 °C; as for `CCN(c1ccc(OCc2ccc(OC(F)(F)F)cc2)cc1)C1CCN(c2ccc(OC[C@H]3CCn4cc([N+](=O)[O-])nc4O3)cc2)CC1`, 95.2 to 97 °C.
Molecule `N#Cc1c[nH]c2c(C(=O)O)cccc12` came in with a melting point of 318 °C.
In turn, `CCc1ccc(NC(=O)c2cc(C(C)(C)C)ccc2S)cc1` yielded a melting point of 150 to 151 °C.
For `Cn1c(=O)n(CCCC2(C)OCCO2)c(=O)c2c1ncn2Cc1ccccc1`, the melting point fell in the range of 104 to 105 °C.
In turn, `CCCCCS(=O)(=O)NC(=O)OCc1ccc(OS(=O)(=O)CCC)cc1Oc1ncc(C(F)(F)F)cc1Cl` registered a melting point of 86 to 89 °C.
`Cc1nc(OC(C)C(=O)O)nn1-c1ccccc1` (stereo unspecified) came in with a melting point of 157 to 159 °C.
With `CC(C)[C@H](NC(=O)[C@H](CC(=O)OC(C)(C)C)NC(=O)CCCN)C(=O)OC(C)(C)C`, the melting point fell in the range of 99 to 100 °C.
`COc1cc(C(C)C)c2oc3ccccc3c2c1C(=O)Nc1c(Cl)cncc1Cl` displayed a melting point of 209 to 211 °C.
`Cc1ccc2c(c1C)N(c1ncnc3cnccc13)CC2`: the melting point turned out to be 248 °C.
For the molecule `COc1cccc2c(CCN(C3CCC3)C3COc4c(F)ccc(C(N)=O)c4C3)coc12` (stereo unspecified), the melting point lay in the range of 135 to 145 °C.
`CC(=O)C1=NN(c2ccc(C(=O)O)cc2C)C(=O)C1` returned a melting point greater than 250 °C.
The value for `COc1cc2c(c(OC)c1OC)CCC(Br)C2=O` (stereo unspecified) was 107 to 108 °C; that for `O=C(c1ccncc1)c1cc(Br)cc(Br)c1` was 89 to 92 °C.
`CCCCCCCCCCS(=O)(=O)c1ccc(O)c(C(=O)Nc2ccc(C(F)(F)F)cc2)c1`: the melting point was in the range of 155 to 157 °C.
